Source: US7396837B2, “Antitumoral analogs of lamellarins” (Pharma Mar, S.A.U., priority 2002, dated 2008)
Read-outs that look alike come from different tables or passages of the source.

How the values were obtained:
Format in all cases: cell-based
[1] = system: IGROV-ET; experiment: SRB colorimetric cell growth inhibition assay, IGROV-ET (ET-743 resistant); conditions: Homo sapiens; for GI50: GI=growth inhibition, read-out: GI50 IGROV-ET; for IC (TGI): total growth inhibition (cytostatic effect), read-out: TGI IGROV-ET; for CC50: cell killing (cytotoxic effect)
Summary of the method: (§1)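 Human tumour cells continuously exposed to compound in 96-well culture; growth and viability quantified colorimetrically by sulforhodamine B staining. Mean ± SD from triplicate wells; GI (growth inhibition), TGI (total growth inhibition, cytostatic) and LC (cell killing, cytotoxic) parameters derived.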

[2] = system: SK-MEL-28; experiment: SRB colorimetric cell growth inhibition assay, SK-MEL-28; conditions: Homo sapiens; for GI50: GI=growth inhibition, read-out: GI50 MEL-28; for IC (TGI): total growth inhibition (cytostatic effect), read-out: TGI MEL-28; for CC50: cell killing (cytotoxic effect)
Summary of the method: as §1

[3] = system: LoVo; experiment: SRB colorimetric cell growth inhibition assay, LoVo; conditions: Homo sapiens, LoVo; for CC50: cell killing (cytotoxic effect); for GI50: GI=growth inhibition, read-out: GI50 LOVO; for IC (TGI): total growth inhibition (cytostatic effect), read-out: TGI LOVO
Summary of the method: as §1

[4] = system: IGROV; experiment: SRB colorimetric cell growth inhibition assay, IGROV; conditions: Homo sapiens, IGROV; for CC50: cell killing (cytotoxic effect); for GI50: GI=growth inhibition, read-out: GI50 IGROV; for IC (TGI): total growth inhibition (cytostatic effect), read-out: TGI IGROV
Summary of the method: as §1

[5] = system: K-562; experiment: SRB colorimetric cell growth inhibition assay, K-562; conditions: Homo sapiens; for GI50: GI=growth inhibition, read-out: GI50 K-562; for IC (TGI): total growth inhibition (cytostatic effect), read-out: TGI K-562; for CC50: cell killing (cytotoxic effect)
Summary of the method: as §1

[6] = system: SK-BR-3; experiment: SRB colorimetric cell growth inhibition assay, SK-BR-3; conditions: Homo sapiens; for GI50: GI=growth inhibition, read-out: GI50 SK-BR-3; for IC (TGI): total growth inhibition (cytostatic effect), read-out: TGI SK-BR-3; for CC50: cell killing (cytotoxic effect)
Summary of the method: as §1

[7] = system: A-549; experiment: SRB colorimetric cell growth inhibition assay, A-549; conditions: Homo sapiens; for GI50: GI=growth inhibition, read-out: GI50 A-549; for IC (TGI): total growth inhibition (cytostatic effect), read-out: TGI A-549; for CC50: cell killing (cytotoxic effect)
Summary of the method: as §1

[8] = system: LNCaP; experiment: SRB colorimetric cell growth inhibition assay, LNCaP; conditions: Homo sapiens, LNCaP; for GI50: GI=growth inhibition, read-out: GI50 LN-caP; for IC (TGI): total growth inhibition (cytostatic effect), read-out: TGI LN-caP; for CC50: cell killing (cytotoxic effect)
Summary of the method: as §1

[9] = system: HeLa-APL; experiment: SRB colorimetric cell growth inhibition assay, HeLa-APL (aplidine resistant); conditions: Homo sapiens; for GI50: read-out: GI50 HELA-APL; for CC50: cell killing (cytotoxic effect); for IC (TGI): read-out: TGI HELA-APL
Summary of the method: as §1

[10] = system: DU-145; experiment: SRB colorimetric cell growth inhibition assay, DU-145; conditions: Homo sapiens; for GI50: GI=growth inhibition, read-out: GI50 DU-145; for IC (TGI): total growth inhibition (cytostatic effect), read-out: TGI DU-145; for CC50: cell killing (cytotoxic effect)
Summary of the method: as §1

[11] = system: HeLa; experiment: SRB colorimetric cell growth inhibition assay, HeLa; conditions: Homo sapiens, HeLa; for CC50: cell killing (cytotoxic effect); for IC (TGI): read-out: TGI HELA; for GI50: GI=growth inhibition, read-out: GI50 HELA
Summary of the method: as §1

[12] = system: LoVo-Dox; experiment: SRB colorimetric cell growth inhibition assay, LoVo-Dox (MDR); conditions: Homo sapiens; for GI50: GI=growth inhibition, read-out: GI50 LOVO-DOX; for IC (TGI): total growth inhibition (cytostatic effect), read-out: TGI LOVO-DOX; for CC50: cell killing (cytotoxic effect)
Summary of the method: as §1

[13] = system: PANC-1; experiment: SRB colorimetric cell growth inhibition assay, PANC-1; conditions: Homo sapiens; for GI50: GI=growth inhibition, read-out: GI50 PANC-1; for IC (TGI): total growth inhibition (cytostatic effect), read-out: TGI PANC-1; for CC50: cell killing (cytotoxic effect)
Summary of the method: as §1

[14] = system: HT-29; experiment: SRB colorimetric cell growth inhibition assay, HT-29; conditions: Homo sapiens; for GI50: GI=growth inhibition, read-out: GI50 HT-29; for IC (TGI): total growth inhibition (cytostatic effect), read-out: TGI HT-29; for CC50: cell killing (cytotoxic effect)
Summary of the method: as §1

COc1cc(-c2c3c4cc(OC)c(OC(=O)[C@@H](N)CO)cc4oc(=O)c3n3ccc4c(OC(=O)[C@@H](N)CO)c(OC)c(OC)cc4c23)ccc1OC(=O)[C@@H](N)CO [Compound 9]
GI50 ([1]; IGROV-ET): 132 nM
IC (TGI) ([1]; IGROV-ET): 980 nM
CC50 ([1]; read-out: LC50 IGROV-ET, IGROV-ET): 493 nM
GI50 ([2]; SK-MEL-28, MEL-28): 134 nM
IC (TGI) ([2]; SK-MEL-28, MEL-28): 516 nM
CC50 ([2]; SK-MEL-28, read-out: LC50 MEL-28, MEL-28): 2110 nM
CC50 ([3]; read-out: LC50 LOVO, LOVO): 2300 nM
GI50 [3]: 243 nM
IC (TGI) [3]: 584 nM
CC50 ([4]; read-out: LC50 IGROV, IGROV): 3000 nM
GI50 [4]: 182 nM
IC (TGI) [4]: 909 nM
GI50 ([5]; K562, K-562): 47.3 nM
IC (TGI) ([5]; K562, K-562): 311 nM
CC50 ([5]; K562, read-out: LC50 K-562, K-562): 4180 nM
GI50 ([6]; SK-BR-3, SK-BR-3): 174 nM
IC (TGI) ([6]; SK-BR-3, SK-BR-3): 374 nM
CC50 ([6]; SK-BR-3, read-out: LC50 SK-BR-3, SK-BR-3): 806 nM
GI50 ([7]; A549, A-549): 323 nM
IC (TGI) ([7]; A549, A-549): 1150 nM
CC50 ([7]; A549, read-out: LC50 A-549, A-549): 6760 nM
GI50 ([8]; LN-caP): 174 nM
IC (TGI) ([8]; LN-caP): 422 nM
CC50 ([8]; read-out: LC50 LN-caP, LN-caP): 1380 nM
GI50 [9]: 282 nM
CC50 ([9]; read-out: LC50 HELA-APL, HELA-APL): 3830 nM
IC (TGI) [9]: 1230 nM
GI50 ([10]; DU-145, DU-145): 54.3 nM
IC (TGI) ([10]; DU-145, DU-145): 169 nM
CC50 ([10]; DU-145, read-out: LC50 DU-145, DU-145): 615 nM
CC50 ([11]; read-out: LC50 HELA, HELA): 4060 nM
IC (TGI) [11]: 459 nM
GI50 [11]: 107 nM
GI50 ([12]; LOVO-DOX): 388 nM
IC (TGI) ([12]; LOVO-DOX): 1140 nM
CC50 ([12]; read-out: LC50 LOVO-DOX, LOVO-DOX): 3630 nM
GI50 ([13]; PANC-1, PANC-1): 200 nM
IC (TGI) ([13]; PANC-1, PANC-1): 1560 nM
CC50 ([13]; PANC-1, read-out: LC50 PANC-1, PANC-1): 4910 nM
GI50 ([14]; HT-29, HT-29): 1610 nM
IC (TGI) ([14]; HT-29, HT-29): 3280 nM
CC50 ([14]; HT-29, read-out: LC50 HT-29, HT-29): 6660 nM

COc1cc(-c2c3c4cc(OC)c(OC(=O)[C@H](C)NC(=O)[C@H](C)N)cc4oc(=O)c3n3ccc4c(OC(=O)[C@H](C)NC(=O)[C@H](C)N)c(OC)c(OC)cc4c23)ccc1OC(=O)[C@H](C)NC(=O)[C@H](C)N [Compound 5]
GI50 ([1]; IGROV-ET): 212 nM
CC50 ([1]; IGROV-ET, read-out: LC50 IGROV-ET): 6090 nM
IC (TGI) ([1]; IGROV-ET): 1060 nM
GI50 ([2]; SK-MEL-28, MEL-28): 62.9 nM
CC50 ([2]; SK-MEL-28, MEL-28, read-out: LC50 MEL-28): 1120 nM
IC (TGI) ([2]; SK-MEL-28, MEL-28): 249 nM
GI50 [3]: 345 nM
CC50 ([3]; read-out: LC50 LOVO): 4140 nM
IC (TGI) [3]: 1060 nM
GI50 [4]: 247 nM
CC50 ([4]; read-out: LC50 IGROV): 4540 nM
IC (TGI) [4]: 855 nM
GI50 ([5]; K562, K-562): 77 nM
CC50 ([5]; K562, K-562, read-out: LC50 K-562): 7400 nM
IC (TGI) ([5]; K562, K-562): 1100 nM
GI50 ([6]; SK-BR-3, SK-BR-3): 241 nM
CC50 ([6]; SK-BR-3, SK-BR-3, read-out: LC50 SK-BR-3): 3540 nM
IC (TGI) ([6]; SK-BR-3, SK-BR-3): 595 nM
GI50 ([7]; A549, A-549): 121 nM
CC50 ([7]; A549, A-549, read-out: LC50 A-549): 4650 nM
IC (TGI) ([7]; A549, A-549): 1020 nM
GI50 ([8]; LN-caP): 223 nM
CC50 ([8]; LN-caP, read-out: LC50 LN-caP): 3620 nM
IC (TGI) ([8]; LN-caP): 1050 nM
GI50 ([9]; HELA-APL, GI=growth inhibition): 310 nM
CC50 ([9]; HELA-APL, read-out: LC50 HELA-APL): 5550 nM
IC (TGI) ([9]; HELA-APL, total growth inhibition (cytostatic effect)): 1710 nM
GI50 ([10]; DU-145, DU-145): 35.6 nM
CC50 ([10]; DU-145, DU-145, read-out: LC50 DU-145): 575 nM
IC (TGI) ([10]; DU-145, DU-145): 119 nM
GI50 [11]: 124 nM
CC50 ([11]; read-out: LC50 HELA): 3100 nM
IC (TGI) ([11]; total growth inhibition (cytostatic effect)): 1120 nM
GI50 ([12]; LOVO-DOX): 409 nM
CC50 ([12]; LOVO-DOX, read-out: LC50 LOVO-DOX): 3400 nM
IC (TGI) ([12]; LOVO-DOX): 1100 nM
GI50 ([13]; PANC-1, PANC-1): 418 nM
CC50 ([13]; PANC-1, PANC-1, read-out: LC50 PANC-1): 4510 nM
IC (TGI) ([13]; PANC-1, PANC-1): 1640 nM
GI50 ([14]; HT-29, HT-29): 1700 nM
CC50 ([14]; HT-29, HT-29, read-out: LC50 HT-29): 6160 nM
IC (TGI) ([14]; HT-29, HT-29): 3240 nM
